Read-outs that look alike come from different tables or passages of the source.
Assays:
Type in all cases: in vivo
[1] = system: Eiysiphe graminis f. sp. tritici; experiment: Test A: wheat powdery mildew, preventive spray on wheat seedlings; conditions: for Test A disease control rating (100 = 100% disease control, 0 = no disease control): wheat seedlings sprayed to run-off, inoculated the following day, rating relative to controls, unmarked compounds (standard test rate); for Test A disease control rating: wheat powdery mildew
Outline: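 Compounds (3% acetone, 250 ppm Trem 014) sprayed to run-off on wheat seedlings, inoculated next day with spore dust. Incubated 7 days at 20° C before disease rating, 0–100% control relative to untreated controls.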

Pyricularia oryzae = conditions: for Test C disease control rating (100 = 100% disease control, 0 = no disease control): rice seedlings sprayed to run-off, inoculated the following day, rating relative to controls, unmarked compounds (standard test rate); for Test C disease control rating: rice blast
Phytophthora infestans = conditions: for Test D disease control rating (100 = 100% disease control, 0 = no disease control): tomato seedlings sprayed to run-off, inoculated the following day, rating relative to controls, unmarked compounds (standard test rate); for Test D disease control rating: tomato late blight
Puccinia recondita = experiment: Test B: wheat leaf rust, preventive spray on wheat seedlings; conditions: for Test B disease control rating (100 = 100% disease control, 0 = no disease control): wheat seedlings sprayed to run-off, inoculated the following day, rating relative to controls, unmarked compounds (standard test rate); for Test B disease control rating: wheat leaf rust
Outline: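 Wheat seedlings were sprayed to run-off with compound (3% acetone, 250 ppm Trem 014), then inoculated with P. recondita spores the next day. They were held 24 h saturated at 20 °C, then 6 days at 20 °C. Ratings are 0–100% disease control versus controls.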

Botrytis cinerea = experiment: Test E: gray mold, preventive spray on cucumber seedlings; conditions: for Test E disease control rating (100 = 100% disease control, 0 = no disease control): cucumber seedlings sprayed to run-off, inoculated the following day, rating relative to controls, unmarked compounds (standard test rate); for Test E disease control rating: gray mold on cucumber
Outline: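 Compounds in 3% acetone were suspended with 250 ppm Trem 014 surfactant and sprayed to run-off on cucumber seedlings. B. cinerea spores were inoculated next day, then 48 h saturated humidity at 20° C and 5 days at 20° C. Disease control rated 0–100% versus controls.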

[2] = 100 = 100% disease control, 0 = no control relative to controls, unmarked entries (standard test concentration)
[3] = 100 = 100% disease control, 0 = no control, unmarked entries (standard test concentration)

Structure (SMILES)	Test A disease control rating [1, 2] [%]	Test C disease control rating (Pyricularia oryzae; [3]) [%]	Test D disease control rating (Phytophthora infestans; [3]) [%]	Test B disease control rating (Puccinia recondita; [3]) [%]	Test E disease control rating (Botrytis cinerea; [3]) [%]	also measured
CCCc1cccc(C#N)c1OCC(C)NC(=O)C1(CC)C(C)C1(Cl)Cl (mixture of isomers) [compound 255]						Test A disease control rating (100 = 100% disease control, 0 = no disease control) [1]: 28%; Test C disease control rating (100 = 100% disease control, 0 = no disease control) (Pyricularia oryzae): 74%; Test D disease control rating (100 = 100% disease control, 0 = no disease control) (Phytophthora infestans): 0%; Test B disease control rating (100 = 100% disease control, 0 = no disease control) (Puccinia recondita): 0%; Test E disease control rating (100 = 100% disease control, 0 = no disease control) (Botrytis cinerea): 0%
C=CCC(C#N)C(=O)NC(C)C(Oc1ccccc1C#N)c1ccccc1 (mixture of isomers) [compound 285]						Test A disease control rating (100 = 100% disease control, 0 = no disease control) [1]: 59%; Test C disease control rating (100 = 100% disease control, 0 = no disease control) (Pyricularia oryzae): 97%; Test D disease control rating (100 = 100% disease control, 0 = no disease control) (Phytophthora infestans): 0%; Test B disease control rating (100 = 100% disease control, 0 = no disease control) (Puccinia recondita): 0%; Test E disease control rating (100 = 100% disease control, 0 = no disease control) (Botrytis cinerea): 0%
C#CC(C)(C=C)C(C#N)C(=O)NC(C)COc1cc(F)ccc1Cl (mixture of isomers) [compound 303]						Test A disease control rating (100 = 100% disease control, 0 = no disease control) [1]: 0%; Test C disease control rating (100 = 100% disease control, 0 = no disease control) (Pyricularia oryzae): 99%; Test D disease control rating (100 = 100% disease control, 0 = no disease control) (Phytophthora infestans): 100%; Test B disease control rating (100 = 100% disease control, 0 = no disease control) (Puccinia recondita): 0%; Test E disease control rating (100 = 100% disease control, 0 = no disease control) (Botrytis cinerea): 0%
CCC1(C(=O)NC(C)COc2cccc(C(F)(F)F)c2C#N)C(C)C1(Cl)Cl (mixture of isomers) [compound 133]	0	0	0	0	0	
C[C@H](COc1cccc(F)c1)NC(=O)C(C#N)C(C)(C)C (single isomer, unassigned) [3d]	92	100	99	0	0	
CC(COc1ccccc1Br)NC(=O)C(C#N)C(C)C(C)(C)C (mixture of isomers) [compound 59]						Test A disease control rating ([1]; tested at 40 ppm): 0%; Test C disease control rating (Pyricularia oryzae; tested at 40 ppm): 52%; Test D disease control rating (Phytophthora infestans; tested at 40 ppm): 0%; Test B disease control rating (Puccinia recondita; tested at 40 ppm): 0%; Test E disease control rating (Botrytis cinerea; tested at 40 ppm): 0%
C[C@H](COc1ccc(F)c(F)c1Br)NC(=O)C(C#N)C(C)(C)C (single isomer, unassigned) [187b]	77	94	91	68	6	
C#CC(C)(C)C(C#N)C(=O)NC(C)COc1cc(C)ccc1Cl (mixture of isomers) [compound 213]	63	99	62	0	0	
CCC1(C(=O)NC(C)COc2ccc(F)c(Cl)c2)C(C)C1(Cl)Cl (stereo not drawn) [compound 232]						Test A disease control rating (100 = 100% disease control, 0 = no disease control) [1]: 62%; Test C disease control rating (100 = 100% disease control, 0 = no disease control) (Pyricularia oryzae): 100%; Test D disease control rating (100 = 100% disease control, 0 = no disease control) (Phytophthora infestans): 35%; Test B disease control rating (100 = 100% disease control, 0 = no disease control) (Puccinia recondita): 0%; Test E disease control rating (100 = 100% disease control, 0 = no disease control) (Botrytis cinerea): 69%
C[C@H](COc1cc(Cl)cc(Cl)c1Cl)NC(=O)C(C#N)C(C)(C)C (single isomer, unassigned) [170b]	61	53	23	68	95	
CCC1(C(=O)NCCCn2c(C)cc(C)c2C#N)C(C)C1(Cl)Cl (stereo not drawn) [compound 150]	0	60	0	0	87	
CC(COc1ccccc1C#N)NC(=O)C(C#N)C(C)C(C)(C)C (mixture of isomers) [compound 60]						Test A disease control rating ([1]; tested at 40 ppm): 91%; Test C disease control rating (Pyricularia oryzae; tested at 40 ppm): 0%; Test D disease control rating (Phytophthora infestans; tested at 40 ppm): 0%; Test B disease control rating (Puccinia recondita; tested at 40 ppm): 0%; Test E disease control rating (Botrytis cinerea; tested at 40 ppm): 0%
CCC(=CCNC(=O)C1(CC)C(C)C1(Cl)Cl)c1cc(Cl)ccc1Cl (stereo not drawn) [compound 262]						Test A disease control rating (100 = 100% disease control, 0 = no disease control) [1]: 98%; Test C disease control rating (100 = 100% disease control, 0 = no disease control) (Pyricularia oryzae): 53%; Test D disease control rating (100 = 100% disease control, 0 = no disease control) (Phytophthora infestans): 99%; Test B disease control rating (100 = 100% disease control, 0 = no disease control) (Puccinia recondita): 0%; Test E disease control rating (100 = 100% disease control, 0 = no disease control) (Botrytis cinerea): 0%
C[C@H](COc1ccccc1C#N)NC(=O)C(C#N)C(C)(C)C (single isomer, unassigned) [13b]	0	86	4	0	83	
CC(COc1ccccc1Cl)NC(=O)C(C#N)C(C)(C)C (mixture of isomers) [5b]	0	100	24	86	0	
CC(COc1cccc(I)c1C#N)NC(=O)C(C#N)C(C)(C)C (mixture of isomers) [compound 45]	0	86	0	0	0	
CCCc1ccccc1OCC(C)NC(=O)C(C#N)C(C)(C)C (mixture of isomers) [21a]	38	99	4	68	0	
CC(COc1ccc(Br)cc1F)NC(=O)C(C#N)C(C)(C)C (mixture of isomers) [compound 38]	0	53	0	28	22	
CCC1(C(=O)NCC=C(C)c2cc(Cl)ccc2Cl)C(C)C1(Cl)Cl (stereo not drawn) [compound 271]						Test A disease control rating (100 = 100% disease control, 0 = no disease control) [1]: 77%; Test C disease control rating (100 = 100% disease control, 0 = no disease control) (Pyricularia oryzae): 94%; Test D disease control rating (100 = 100% disease control, 0 = no disease control) (Phytophthora infestans): 96%; Test B disease control rating (100 = 100% disease control, 0 = no disease control) (Puccinia recondita): 0%; Test E disease control rating (100 = 100% disease control, 0 = no disease control) (Botrytis cinerea): 0%
C[C@H](COc1cccc(Cl)c1)NC(=O)C(C#N)C(C)(C)C (single isomer, unassigned) [6d]	77	97	0	28	0	
CCC1(C(=O)NC(C)CCn2c(C#N)cc(Br)c2C)C(C)C1(Cl)Cl (mixture of isomers) [compound 143]	0	53	0	0	0	
Cc1cccc(C#N)c1OCC(C)NC(=O)C(C#N)C(C)(C)C (mixture of isomers) [compound 209]	0	86	0	0	0	
CCC1(C(=O)NC(C)COc2cc(Cl)ccc2Cl)C(C)C1(Cl)Cl (stereo not drawn) [compound 113]						Test A disease control rating ([1]; tested at 40 ppm): 0%; Test C disease control rating (Pyricularia oryzae; tested at 40 ppm): 97%; Test D disease control rating (Phytophthora infestans; tested at 40 ppm): 19%; Test B disease control rating (Puccinia recondita; tested at 40 ppm): 0%; Test E disease control rating (Botrytis cinerea; tested at 40 ppm): 0%
C[C@H](COc1cccc(Cl)c1Cl)NC(=O)C(C#N)C(C)(C)C (single isomer, unassigned) [31a]	62	74	51	68	0	
CCCC(C#N)C(=O)NC(C)C(Oc1ccccc1C#N)c1ccccc1 (mixture of isomers) [compound 288]						Test A disease control rating (100 = 100% disease control, 0 = no disease control) [1]: 33%; Test C disease control rating (100 = 100% disease control, 0 = no disease control) (Pyricularia oryzae): 86%; Test D disease control rating (100 = 100% disease control, 0 = no disease control) (Phytophthora infestans): 0%; Test B disease control rating (100 = 100% disease control, 0 = no disease control) (Puccinia recondita): 0%; Test E disease control rating (100 = 100% disease control, 0 = no disease control) (Botrytis cinerea): 0%
C[C@H](COc1ccccc1Br)NC(=O)C(C#N)C(C)(C)C (single isomer, unassigned) [8b]	37	100	89	0	47	
CC(COc1cccc(I)c1C#N)NC(=O)C(C#N)C(C)C(C)(C)C (mixture of isomers) [compound 65]	0	0	2	0	0	

— patent US6642392B1 (priority 1997, dated 2003)
